Data reported in US20250151740A1, “COMPOSITION FOR PREVENTING FUNGAL SPOILAGE IN POST-HARVEST FRUITS, VEGETABLES AND FLOWERS, METHOD AND USE THEREOF” (BIOBAB R&D, S.L., priority 2022, published 2025).
“Also recorded” adds a separate entry of the source.

Assays:
strawberries = assay: In vivo test on strawberries with controlled release diffuser; settings: diffuser with 50 μL, 20° C., darkness, approx. 7 days, versus control; listed as composition of the present invention
Method: Mature strawberries were brought directly from local market and sent to laboratory within 2 hours. The strawberries were divided into two equal groups and each group of strawberries was placed in a box.
(§1) One group of strawberries were not exposed to any product (control) and another group of strawberries were exposed to a controlled release diffuser that contains the composition of the present invention. The controlled release diffuser was prepared using cellulose sheets (0.2 cm thick) in pieces (2×1 cm) and impregnated with 50 μL of pure β-cyclocitral (β-CC). These sheets were inserted into polyethylene bags (3×3 cm) that were subsequently heat-sealed.
The diffuser was place in the middle of one box from 10 cm to the surface of strawberries. The two boxes were covered with a plastic bag to keep inside a homogeneous atmosphere. Boxes were kept in an acclimated chamber (20° C., darkness) until the symptoms of fungi degradation (approx. 7 days).

roses = assay: In vivo test on roses with controlled release diffuser; settings: diffuser with 50 μL, 20° C., darkness, approx. 7 days, versus control
Method: Roses were brought directly from local market and sent to laboratory within 12 hours. The roses were divided into two equal groups and each group of roses was placed in a jar filled with tap water.
as §1, with “roses” for “strawberries”
The diffuser was place in the middle of jar from 20 cm to the surface of the petals. The two jars were covered with a plastic bag to keep inside a homogeneous atmosphere. jars were kept in an acclimated chamber (20° C., darkness) until the symptoms of fungi degradation (approx. 7 days).

Monilinia sp = assay: Vapor-agar contact method, colony diameter; format: cell-based
Method: (§2) The fungi grown on strawberries was isolated and cultured on potato dextrose agar (PDA, Condalab, Madrid Spain) The fungus was identified as Monilinia sp.
Antifungal activity was determined by the vapor-agar contact method previously described by Sekiyama et al.. Fungi were cultured on potato dextrose agar (PDA) medium at 27° C. for a week. Fungal spores were then inoculated in the center of PDA plates which were aseptically placed in a chamber without lids.
A controlled release diffuser as described in examples 1 and 2 was used. In this example 3 doses of β-cyclocitral (β-CC) were used: 20, 50 and 100 μL.
The diffusers were introduced into the chambers, 6 cm far from the PDA plate, followed by proper sealing. Incubation in the chambers was performed at 27° C. for 3-5 days. The inhibitory activity was evaluated by measuring the diameter of colonies formed by the tested fungal strains. The minimum inhibitory dose (MID) was defined as the lowest concentration (mg/L in air) of volatile compounds which inhibited colony formation of test fungi by 50%.

cherries = assay: In vivo test on cherries with controlled release diffuser; settings: diffuser with 50 μl, 20° C., darkness, 6 days; control approximately 23%
Method: Mature cherries were brought directly from Spanish farm and sent to laboratory within 24 hours. The cherries were divided into two equal groups and each group of cherries was placed in a plate.
as §1, with “cherries” for “strawberries”, “μl” for “μL”
The diffuser was placed in the bottom of one plate. The two plates were covered with a plastic bag to keep inside a homogeneous atmosphere. Boxes were kept in an acclimated chamber (20° C., darkness) for 6 days.
Finally, the cherries (control and exposed to the composition) were separate into two groups: fruits able to consume (not sign of fungi) and fruits not able to consume (signs of fungi).

Monilinia sp. = assay: Compartment PDA plate, β-CC and eucalyptol on cellulose, mycelium growth inhibition; format: cell-based; settings: 25 μl of the single substance, 27° C., 3-5 days
Method: as §2
(§3) Fungal spores were then inoculated in the center of the compartment with PDA (40 mm diameter) and a small piece of cellulose with different volume of β-cyclocitral (β-CC) (composition of the present invention) and Eucalyptol was placed in one of the empty compartments. The plates were incubated at 27° C. for 3-5 days and the growth area of the mycelium and % of inhibition was measured.

Phytophtera nicotiana = assay: Vapor-agar contact method (modified, three-compartment petri dish); format: cell-based; settings: 50 μL; stated in text for all fungi of the example
Method: (§4) Inhibitory effects on the spore germination of other filamentous fungi, specifically Phytophtera nicotiana, Taphrina deformans, Colletotrichum and Rhizopus sp., were examined by the vapor-agar contact method described in example 1 with a slight modification as follows. Fungi were cultured on potato dextrose agar (PDA) medium at 27° C. for a week. It was used petri dish with three compartment, one compartment was filled out with PDA and another two was kept empty,
as §3, with “50 μL” for “different volume”, “invention)” for “invention) and Eucalyptol”

Rhizopus sp. = assay: as above; format: cell-based; settings: 50 μL
Method: as §4
as §3, with “50 μL” for “different volume”, “invention)” for “invention) and Eucalyptol”

Colletotrichum = assay: as above; format: cell-based; settings: 50 μL, 27° C., 3-5 days
Method: as §4
as §3, with “50 μL” for “different volume”, “invention)” for “invention) and Eucalyptol”

Taphrina deformans = assay: as above; format: cell-based; settings: 50 μL, 27° C., 3-5 days
Method: as §4
as §3, with “50 μL” for “different volume”, “invention)” for “invention) and Eucalyptol”

CC1=C(C=O)C(C)(C)CCC1 [β-CC, beta-cyclocitral]
rot / fungi contamination of strawberries (strawberries): less fungi contamination; also recorded: less rot | spots on roses (roses): less spots | inhibition (Monilinia sp; concentrations higher than 50 μL): more than 60% | inhibition (Monilinia sp; concentrations of 100 μL): 80-100% | doses that inhibit 50% of mycelium fungi (MID) (Monilinia sp; from linear model y=1.01X+4.2047, doses 20, 50 and 100 μL, 27° C., 3-5 days): 45.34 µL | cherries suitable for consumption (cherries): approximately 65% | % Inhibition (Monilinia sp.): 78.22% | growth inhibition (Phytophtera nicotiana): 100% | % Inhibition (Rhizopus sp.; 27° C., 3-5 days): 62.55% | Growth area (Rhizopus sp.; 27° C., 3-5 days): 1.45 cm^2 | effect on spore germination (FIG. 3) (Rhizopus sp.; versus control): inhibitory effect on the spore germination | % Inhibition (Colletotrichum): 99.00% | Growth area (Colletotrichum): 6.15 cm^2 | % Inhibition (Taphrina deformans): 100% | Growth area (Taphrina deformans): 0 cm^2
